Measured values published in US20220274987A1, “PYRAZINO [1,2-B]QUINAZOLINE-3,6-DIONES DERIVATIVES, THEIR PRODUCTION AND USES THEREOF” (CIIMAR -CENTRO INTERDISCIPLINAR DE INVESTIGAÇÃO MARINHA E …, priority 2019, published 2022).
≈ marks a conversion by molar mass, not a printed value. Read-outs that look alike come from different tables or passages of the source.

Assays:
[1] = tested on: Plasmodium falciparum 3D7 strain; assay: In vitro susceptibility assay of P. falciparum, SYBR Green I; type: cell-based; conditions: for IC50: Plasmodium falciparum; for antimalarial activity (in words): P. falciparum 3D7
Method: The principle of the in vitro susceptibility test to malaria is to assess the degree of development of parasites P. falciparum in the presence of different concentrations of the compounds.
In the present disclosure, the antimalarial activity was also evaluated. Each compound was lyophilized and solubilized in DMSO (Sigma-Aldrich) to obtain a final concentration of 5 mM. Some intermediate dilutions were made to achieve the final concentration of 10 μM in the first well of the plate.
In an embodiment, the culture of P. falciparum was carried out as follows. […] Parasites were cultivated at 5% hematocrit, 37° C. and atmosphere with 5% of CO2, human serum was replaced with 0.5% AlbuMAXII (Invitrogen™) in the culture medium. Synchronized cultures were obtained by treatments with a 5% (m/v) solution of D-sorbitol (Sigma-Aldrich).
In the present disclosure, the in vitro susceptibility assay of P. falciparum using SYBR Green I was carried out as follows. […] Briefly, early ring stage parasites (>80% of rings, 3% haematocrit and 1% parasitaemia) were tested in duplicate in a 96-well plate and incubated with the compounds for 48 h (37° C., 5% CO2), parasite growth was assessed with SYBR Green I (Thermo Fisher Scientific). Each compound was tested in concentrations ranging from 10 to 0.001 μM. Fluorescence intensity was measured with a microplate reader with excitation and emission wavelengths of 485 and 535 nm, respectively, and analysed by nonlinear regression using GraphPad Prism 5 demo version to determine

[2] = tested on: Staphylococcus aureus ATCC 29213; assay: MIC/MBC broth dilution (CLSI), S. aureus reference strain; type: cell-based; conditions: S. aureus ATCC 29213; for MBC / MIC: Staphylococcus aureus, ATCC29213; for MIC: read-out: MIC
Description: (§1) In the present disclosure, two Gram-positive—Staphylococcus aureus ATCC 29213 and Enterococcus faecalis ATCC […] and two Gram-negative—Escherichia coli ATCC 25922 and Pseudomonas aeruginosa ATCC 27853—reference bacterial strains were used. When it was possible to determine a minimal inhibitory concentration (MIC) value for these strains, clinically relevant strains were also used. These included methicillin-resistant S. uareus (MRSA) 66/1, isolated from public buses, as well as a isolate sensitive to the most commonly used antibiotic families (S. aureus 40/61/24) and two vancomycin-resistant Enterococcus (VRE) strains isolated from river water, E. faecalis B3/101 and E. faecalis A5/102, which is sensitive to ampicillin. Frozen stocks of all strains were grown on Mueller-Hinton agar (MH-BioKar Diagnostics, Allone, France) at 37° C. for 24 h. All bacterial strains were sub-cultured on MH agar and incubated overnight at 37° C. before each assay, in order to obtain fresh cultures.
(§2) An initial screening of the antibacterial activity of the compounds was performed by the Kirby-Bauer disk diffusion method, as recommended by the Clinical and Laboratory Standards institute (CLSI). Briefly, sterile 6 mm blank paper disks (Oxoid, Basingstoke, England) impregnated with 15 μg of each compound were placed on inoculated MH agar plates. A blank disk with DMSO was used as a negative control. MH inoculated plates were incubated for 18-20 hours at 37° C. At the end of the incubation, the inhibition halos where measured. The minimal inhibitory concentration (MIC) was used to determine the antibacterial activity of each compound, in accordance with the recommendations of the CLSI. Two-fold serial dilutions of the compounds were prepared in Mueller-Hinton Broth 2 (MHB2-Sigma-Aldrich, St. Louis, Mo., USA) within the concentration range of 0.062-64 μg/mL. Cefotaxime (CTX) ranging between 0.031-16 μg/mL was used as a control. Sterility and growth controls were included in each assay. Purity check and colony counts of the inoculum suspensions were also performed in order to ensure that the final inoculum density closely approximates the intended number ([…]). The MIC was determined as the lowest concentration at which no visible growth was observed. The minimal bactericidal concentration (MBC) was assessed by spreading 10 μL of culture collected from wells showing no visible growth on MH agar plates. The MBC was determined as the lowest concentration at which no colonies grew after 16-18 hours incubation at 37° C. These assays were performed in duplicate.

[3] = tested on: S. aureus 66/1 (MRSA); assay: MIC/MBC broth dilution (CLSI), MRSA; type: cell-based; conditions: Staphylococcus aureus
Description: as §1, §2

[4] = tested on: E. faecalis ATCC 29212; assay: MIC/MBC broth dilution (CLSI), E. faecalis reference strain; type: cell-based, Enterococcus faecalis; conditions: for MBC / MIC: Enterococcus faecalis
Description: as §1, §2

[5] = tested on: S. aureus 40/61/24; assay: MIC/MBC broth dilution (CLSI), sensitive clinical isolate; type: cell-based; conditions: Staphylococcus aureus
Description: as §1, §2

[6] = tested on: E. faecalis B3/101 (VRE); assay: MIC/MBC broth dilution (CLSI), VRE; type: cell-based; conditions: Enterococcus faecalis
Description: as §1, §2

[7] = tested on: E. faecalis A5/102 (VRE); assay: MIC/MBC broth dilution (CLSI), VRE sensitive to ampicillin; type: cell-based; conditions: Enterococcus faecalis
Description: as §1, §2

[8] = S. aureus 40/61/24, read-out: MIC
[9] = P. falciparum (3D7), 48 h, read-out: IC50

IC50 [1, 9] [µM]	SMILES	antibacterial (inhibitory) effect (in words) [2]	MBC [2] [µg/mL]	MIC [2] [µg/mL]	MBC [3] [µg/mL]	MIC [3] [µg/mL]	MBC ([4]; ATCC29212) [µg/mL]	MIC ([4]; ATCC29212, read-out: MIC) [µg/mL]	MBC ([5]; S. aureus 40/61/24) [µg/mL]	other results
–	O=C1N[C@@H](Cc2ccc(OCc3ccccc3)cc2)c2nc3c(Cl)cc(Cl)cc3c(=O)n2[C@@H]1Cc1c[nH]c2ccccc12 [Compound 38]	–	–	–	–	–	–	–	–	IC50 ([1]; 3D7, 48 h): 4 ± 0.02 µM
–	CC(C)[C@@H]1NC(=O)[C@H](Cc2c[nH]c3ccccc23)n2c1nc1ccccc1c2=O [Compound 10]	–	–	–	–	–	–	–	–	antimalarial activity (in words) [1]: inactive
–	CC(C)[C@@H]1NC(=O)[C@@H](Cc2c[nH]c3ccccc23)n2c1nc1c(Cl)cc(Cl)cc1c2=O [Compound 30, (1S, 4R)-4-((1H -indol-3-yl)methyl)-8,10-dichloro-1-isopropyl-1,2-dihydro-6H-pyrazino[2,1-b]quinazoline-3,6(4H)-dione]	inhibitory effect	> 64	16 (≈ 35.1 µM)	> 64	> 64	> 64	> 64	> 64	MIC [5, 8]: > 64 µg/mL
–	CC(C)C[C@@H]1NC(=O)[C@@H](Cc2c[nH]c3ccccc23)n2c1nc1ccc(I)cc1c2=O [Compound 35, (1S,4R)-4-((1H-indol-3-yl)methyl)-8-iodo-1-isobutyl-1,2-dihydro-6H-pyrazino[2,1-b]quinazoline-3,6(4H)-dione]	inhibitory effect	> 64	16 (≈ 30.4 µM)	> 64	> 64	> 64	> 64	> 64	MIC [5, 8]: 64 µg/mL (≈ 122 µM)
2 ± 0.32	CC(C)C[C@H]1NC(=O)[C@H](Cc2c[nH]c3ccccc23)n2c1nc1ccccc1c2=O [Compound 15]	–	–	–	–	–	–	–	–	–
–	CCN(CC)CCCC(C)Nc1ccnc2cc(Cl)ccc12 (stereo not shown) [CQ (6), chloroquine, reference compound]	–	–	–	–	–	–	–	–	IC50 ([1]; 3D7): 0.01508 ± 8e-05 µM
–	CCC(C)[C@@H]1NC(=O)[C@@H](Cc2c[nH]c3ccccc23)n2c1nc1c(Cl)cc(Cl)cc1c2=O (stereo partly drawn) [Compound 32, (1S, 4R)-4((1H-indol-3-yl)methyl)-1-((S)-sec-butyl) 8,10-dichloro-1,2-dihydro-6H-pyrazinoi[2,1-b]quinazoline-3,6(4H)-dione]	inhibitory effect	> 64	4 (≈ 8.52 µM)	> 64	8 (≈ 17 µM)	> 64	> 64	> 64	MIC ([5]; 40/61/24): 8 µg/mL (≈ 17 µM); IC50 ([1]; 3D7, 48 h): 1.51 ± 0.53 µM
3.68 ± 0.62	C[C@H]1NC(=O)[C@@H](Cc2c[nH]c3ccccc23)n2c1nc1ccccc1c2=O [Compound 26]	–	–	–	–	–	–	–	–	–
–	CC(C)C[C@@H]1NC(=O)[C@@H](Cc2c[nH]c3ccccc23)n2c1nc1ccc(Cl)cc1c2=O [Compound 28]	inhibitory effect	> 64	32 (≈ 73.6 µM)	> 64	> 64	> 64	–	> 64	MBC [6]: > 64 µg/mL; MIC [6]: > 64 µg/mL; antibacterial (inhibitory) effect (in words) [4]: inhibitory effect; MIC ([4]; ATCC29212): 32 µg/mL (≈ 73.6 µM); MBC [7]: > 64 µg/mL; MIC [7]: 64 µg/mL (≈ 147 µM); MIC ([5]; 40/61/24): 64 µg/mL (≈ 147 µM)
0.47 ± 0.22	CC(C)C[C@H]1NC(=O)[C@@H](Cc2c[nH]c3ccccc23)n2c1nc1ccccc1c2=O [Compound 17]	–	–	–	–	–	–	–	–	antimalarial activity (in words) [1]: decreased activity
